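Where inhibition never reached the appropriate level, the endpoint shown equals the highest concentration tested. Otherwise, values were interpolated linearly from a five-concentration, 48-hour dose response in 96-well plates. GI50: concentration for 50% inhibition of growth.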 Activity calls are given as the source filed them. Rule as the data show it: active = GI50 up to about 1.1 µM and inactive = higher.
Assays:
Assay in all cases: growth of human tumour cells (NCI), 48 h
HT-29 = system: HT-29
T47D = system: T47D
NCI/ADR-RES = system: NCI/ADR-RES
M14 = system: M14
TK-10 = system: TK-10
UO-31 = system: UO-31
SNB-19 = system: SNB-19
A498 = system: A498
SF-268 = system: SF-268
UACC-62 = system: UACC-62
LOX IMVI = system: LOX IMVI
HCT-116 = system: HCT-116
U-251 = system: U-251
MCF7 = system: MCF7
RXF 393 = system: RXF 393
SNB-75 = system: SNB-75
NCI-H460 = system: NCI-H460
Hs-578T = system: Hs-578T
OVCAR-4 = system: OVCAR-4
DU-145 = system: DU-145
COLO 205 = system: COLO 205
BT-549 = system: BT-549
SW-620 = system: SW-620
MDA-MB-231 = system: MDA-MB-231
SK-MEL-2 = system: SK-MEL-2
HL-60 = system: HL-60
SK-OV-3 = system: SK-OV-3
SK-MEL-5 = system: SK-MEL-5
Malme-3M = system: Malme-3M
CCRF-CEM = system: CCRF-CEM
EKVX = system: EKVX
SF-539 = system: SF-539
NCI-H23 = system: NCI-H23
786-0 = system: 786-0
MDA-MB-435 = system: MDA-MB-435
OVCAR-3 = system: OVCAR-3
OVCAR-5 = system: OVCAR-5
CAKI-1 = system: CAKI-1
IGROV-1 = system: IGROV-1
SK-MEL-28 = system: SK-MEL-28
ACHN = system: ACHN
NCI-H522 = system: NCI-H522
HCC 2998 = system: HCC 2998
HOP-92 = system: HOP-92
OVCAR-8 = system: OVCAR-8
MOLT-4 = system: MOLT-4
RPMI-8226 = system: RPMI-8226
HCT-15 = system: HCT-15
KM12 = system: KM12
MDA-N = system: MDA-N
UACC-257 = system: UACC-257
PC-3 = system: PC-3
SN12C = system: SN12C
A549 = system: A549
HOP-62 = system: HOP-62
SF-295 = system: SF-295
K562 = system: K562

With `COC(=O)C1CC23C4=C(CCC41)CCC1CN4CC(C)C(CC(OC(C)=O)C12COC(C)=O)C43O` (configuration not stated) the GI50 (HT-29) was > 100 µM (inactive), the GI50 (T47D) was > 100 µM (inactive) and the GI50 (NCI/ADR-RES) was > 100 µM (inactive). For the same compound, the GI50 (M14) was > 100 µM (inactive), the GI50 (TK-10) was > 100 µM (inactive) and the GI50 (UO-31) was > 100 µM (inactive). The GI50 (SNB-19) was > 100 µM (inactive), the GI50 (A498) was > 100 µM (inactive) and the GI50 (SF-268) was > 100 µM (inactive). The GI50 (UACC-62) was > 100 µM (inactive), the GI50 (LOX IMVI) was > 100 µM (inactive) and the GI50 (HCT-116) was > 100 µM (inactive). The GI50 (U-251) was > 100 µM (inactive), the GI50 (MCF7) was > 100 µM (inactive) and the GI50 (RXF 393) was > 100 µM (inactive). For the same compound, the GI50 (SNB-75) was > 100 µM (inactive), the GI50 (NCI-H460) was > 100 µM (inactive) and the GI50 (Hs-578T) was > 100 µM (inactive). The GI50 (OVCAR-4) was > 100 µM (inactive), the GI50 (DU-145) was > 100 µM (inactive) and the GI50 (COLO 205) was > 100 µM (inactive). For the same compound, the GI50 (BT-549) was > 100 µM (inactive), the GI50 (SW-620) was > 100 µM (inactive) and the GI50 (MDA-MB-231) was > 100 µM (inactive). The GI50 (SK-MEL-2) was > 100 µM (inactive), the GI50 (HL-60) was > 100 µM (inactive) and the GI50 (SK-OV-3) was > 100 µM (inactive). The GI50 (SK-MEL-5) was > 100 µM (inactive), the GI50 (Malme-3M) was > 100 µM (inactive) and the GI50 (CCRF-CEM) was > 100 µM (inactive). The GI50 (EKVX) was > 100 µM (inactive), the GI50 (SF-539) was > 100 µM (inactive) and the GI50 (NCI-H23) was > 100 µM (inactive). The GI50 (786-0) was > 100 µM (inactive), the GI50 (MDA-MB-435) was > 100 µM (inactive) and the GI50 (OVCAR-3) was > 100 µM (inactive). For the same compound, the GI50 (OVCAR-5) was > 100 µM (inactive), the GI50 (CAKI-1) was > 100 µM (inactive) and the GI50 (IGROV-1) was > 100 µM (inactive). The GI50 (SK-MEL-28) was > 100 µM (inactive), the GI50 (ACHN) was > 100 µM (inactive) and the GI50 (NCI-H522) was > 100 µM (inactive). The GI50 (HCC 2998) was > 100 µM (inactive), the GI50 (HOP-92) was > 100 µM (inactive) and the GI50 (OVCAR-8) was > 100 µM (inactive). For the same compound, the GI50 (MOLT-4) was 68.4 µM (inactive), the GI50 (RPMI-8226) was > 100 µM (inactive) and the GI50 (HCT-15) was over 100 µM. For the same compound, the GI50 (KM12) was > 100 µM (inactive), the GI50 (MDA-N) was > 100 µM (inactive) and the GI50 (UACC-257) was > 100 µM (inactive). The GI50 (PC-3) was > 100 µM (inactive), the GI50 (SN12C) was > 100 µM (inactive) and the GI50 (A549) was > 100 µM (inactive). For the same compound, the GI50 (HOP-62) was > 100 µM (inactive), the GI50 (SF-295) was > 100 µM (inactive) and the GI50 (K562) was > 100 µM (inactive).

From ChEMBL document CHEMBL1201862, “PubChem BioAssay data set” (2004)
